Drawing on patent US9120770B2, “Substituted pyridine and pyrazine compounds as PDE4 inhibitors” (DART NEUROSCIENCE (CAYMAN) LTD., priority 2013, dated 2015), this text covers EC50 for 16 compounds.

PDE4D3, sequence (Q08499 1-673 isoform Q08499-2): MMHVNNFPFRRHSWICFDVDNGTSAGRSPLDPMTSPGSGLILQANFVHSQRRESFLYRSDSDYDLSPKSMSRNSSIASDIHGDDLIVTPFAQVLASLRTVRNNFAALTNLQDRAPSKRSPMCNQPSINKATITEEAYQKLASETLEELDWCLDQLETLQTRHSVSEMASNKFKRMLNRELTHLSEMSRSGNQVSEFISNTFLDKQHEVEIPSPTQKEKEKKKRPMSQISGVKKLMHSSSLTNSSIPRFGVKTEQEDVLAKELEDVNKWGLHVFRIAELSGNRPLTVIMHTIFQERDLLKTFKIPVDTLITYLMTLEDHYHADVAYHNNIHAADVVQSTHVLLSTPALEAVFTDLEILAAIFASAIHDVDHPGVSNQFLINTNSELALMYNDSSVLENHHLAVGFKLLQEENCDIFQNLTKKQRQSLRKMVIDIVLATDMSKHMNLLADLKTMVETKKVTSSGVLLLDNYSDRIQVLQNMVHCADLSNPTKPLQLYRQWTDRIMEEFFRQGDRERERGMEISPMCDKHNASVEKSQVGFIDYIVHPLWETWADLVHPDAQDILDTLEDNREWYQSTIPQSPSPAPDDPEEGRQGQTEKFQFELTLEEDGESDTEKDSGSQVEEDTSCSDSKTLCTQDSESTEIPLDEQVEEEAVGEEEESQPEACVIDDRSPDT

This assay addresses PDE4D3 (Homo sapiens, UniProt Q08499).
What is called EC50 is the concentration that produces a half-maximal response. Consider `CCOc1ncc(Cn2cnc(C(=O)OC)n2)nc1-c1cccc(Cl)c1` [Example 197, Methyl 1-{[6-(3-chlorophenyl)-5-ethoxypyrazin-2-yl]methyl}-1H-1,2,4-triazole-3-carboxylate], for which the EC50 is 1000 to 10000 nM.

As for `CS(=O)(=O)c1ccc(Cc2cnc(OC(F)F)c(-c3cccc(Cl)c3)c2)cc1` [Example 45, 3-(3-Chlorophenyl)-2-(difluoromethoxy)-5-[(4-methanesulfonylphenyl)methyl]pyridine], the EC50 lay in the range of 100 to 1000 nM.

As to `CCOc1ncc(Cn2cnc(C(F)(F)F)n2)cc1-c1cccc(OC(F)F)c1` [Example 163, 3-[3-(Difluoromethoxy)phenyl]-2-ethoxy-5-{[3-(trifluoromethyl)-1H-1,2,4-triazol-1-yl]methyl}pyridine], the EC50 is less than 100 nM.

`CCOc1ncc(Cc2ccc(C#N)nc2)nc1-c1cccc(OC(F)F)c1` [Example 103, 5-({6-[3-(Difluoromethoxy)phenyl]-5-ethoxypyrazin-2-yl}methyl)pyridine-2-carbonitrile] returned an EC50 of less than 100 nM.

`FC(F)Oc1ncc(Cc2nccs2)cc1-c1cccc(Cl)c1` [Example 74, 3-(3-Chlorophenyl)-2-(difluoromethoxy)-5-(1,3-thiazol-2-ylmethyl)pyridine] registered an EC50 of 100 to 1000 nM.

Take `N#Cc1ncn(Cc2cnc(OC(F)F)c(-c3cccc(Cl)c3)c2)n1` [Example 156, 1-{[5-(3-Chlorophenyl)-6-(difluoromethoxy)pyridin-3-yl]methyl}-1H-1,2,4-triazole-3-carbonitrile]: the EC50 lay within 1000 to 10000 nM.

For `COc1ncc(Cn2cc(CO)nn2)nc1-c1cccc(OC(F)F)c1` [Example 267, [1-({6-[3-(Difluoromethoxy)phenyl]-5-methoxypyrazin-2-yl}methyl)-1H-1,2,3-triazol-4-yl]methanol], the EC50 is 100 to 1000 nM.

As for `COc1ncc(Cc2ccncc2)cc1-c1cccc(Cl)c1` [Example 53, 3-(3-Chlorophenyl)-2-methoxy-5-(pyridin-4-ylmethyl)pyridine], the EC50 is 100 to 1000 nM.

Take `COc1ncc(Cn2cc(C(N)=O)cn2)cc1-c1cccc(Cl)c1` [Example 271, 1-{[5-(3-Chlorophenyl)-6-methoxypyridin-3-yl]methyl}-1H-pyrazole-4-carboxamide]: the EC50 lay within 100 to 1000 nM.

`COc1ncc(Cn2cccn2)nc1-c1cccc(Cl)c1` [Example 182, 3-(3-Chlorophenyl)-2-methoxy-5-(1H-pyrazol-1-ylmethyl)pyrazine] gave an EC50 of 1000 to 10000 nM.

With `COc1ncc(Cn2ncnc2C(F)(F)F)cc1-c1cccc(OC(F)F)c1` [Example 160, 3-[3-(Difluoromethoxy)phenyl]-2-methoxy-5-{[5-(trifluoromethyl)-1H-1,2,4-triazol-1-yl]methyl}pyridine], the EC50 fell in the range of 100 to 1000 nM.

`COc1ncc(Cn2cncn2)cc1-c1cccc(C(F)F)c1` [Example 144, 3-[3-(Difluoromethyl)phenyl]-2-methoxy-5-(1H-1,2,4-triazol-1-ylmethyl)pyridine] displayed a 50% effective concentration (EC50) of less than 100 nM.

`COc1cccc(-c2cc(Cc3cnc(N)nc3)cnc2OC(F)F)c1` [Example 29, 5-{[6-(Difluoromethoxy)-5-(3-methoxyphenyl)pyridin-3-yl]methyl}pyrimidin-2-amine]: the EC50 was less than 100 nM.

In the case of `CCOc1ncc(Cn2cnc(CO)n2)cc1-c1ccnc(OC(F)F)c1` [Example 206, [1-({5-[2-(Difluoromethoxy)pyridin-4-yl]-6-ethoxypyridin-3-yl}methyl)-1H-1,2,4-triazol-3-yl]methanol], the half-maximal effective concentration (EC50) was less than 100 nM.

The compound `COc1ncc(Cc2cnc(N)nc2)nc1-c1cccc(Cl)c1` [Example 87, 5-{[6-(3-Chlorophenyl)-5-methoxypyrazin-2-yl]methyl}pyrimidin-2-amine] displayed an EC50 of less than 100 nM.

`COc1ncc(Cn2cncn2)cc1-c1cccc(CO)c1` [Example 8, {3-[2-Methoxy-5-(1H-1,2,4-triazol-1-ylmethyl)pyridin-3-yl]phenyl}methanol] gave an EC50 of 1000 to 10000 nM.
